Source: ChEMBL document CHEMBL3286176, “Discovery and structure-activity relationship of novel 2,3-dihydrobenzofuran-7-carboxamide and 2,3-dihydrobenzofuran-3(2H)-one-7-carboxamide derivatives as poly(ADP-ribose)polymerase-1 inhibitors” (J Med Chem, 2014)

Target: Poly [ADP-ribose] polymerase 1 (Homo sapiens, UniProt P09874)
Assay: Inhibition of PARP-1 (unknown origin) using biotinylated NAD+ as substrate after 60 mins by spectrophotometry
Conditions: not given

Poly [ADP-ribose] polymerase 1, sequence (P09874 whole entry): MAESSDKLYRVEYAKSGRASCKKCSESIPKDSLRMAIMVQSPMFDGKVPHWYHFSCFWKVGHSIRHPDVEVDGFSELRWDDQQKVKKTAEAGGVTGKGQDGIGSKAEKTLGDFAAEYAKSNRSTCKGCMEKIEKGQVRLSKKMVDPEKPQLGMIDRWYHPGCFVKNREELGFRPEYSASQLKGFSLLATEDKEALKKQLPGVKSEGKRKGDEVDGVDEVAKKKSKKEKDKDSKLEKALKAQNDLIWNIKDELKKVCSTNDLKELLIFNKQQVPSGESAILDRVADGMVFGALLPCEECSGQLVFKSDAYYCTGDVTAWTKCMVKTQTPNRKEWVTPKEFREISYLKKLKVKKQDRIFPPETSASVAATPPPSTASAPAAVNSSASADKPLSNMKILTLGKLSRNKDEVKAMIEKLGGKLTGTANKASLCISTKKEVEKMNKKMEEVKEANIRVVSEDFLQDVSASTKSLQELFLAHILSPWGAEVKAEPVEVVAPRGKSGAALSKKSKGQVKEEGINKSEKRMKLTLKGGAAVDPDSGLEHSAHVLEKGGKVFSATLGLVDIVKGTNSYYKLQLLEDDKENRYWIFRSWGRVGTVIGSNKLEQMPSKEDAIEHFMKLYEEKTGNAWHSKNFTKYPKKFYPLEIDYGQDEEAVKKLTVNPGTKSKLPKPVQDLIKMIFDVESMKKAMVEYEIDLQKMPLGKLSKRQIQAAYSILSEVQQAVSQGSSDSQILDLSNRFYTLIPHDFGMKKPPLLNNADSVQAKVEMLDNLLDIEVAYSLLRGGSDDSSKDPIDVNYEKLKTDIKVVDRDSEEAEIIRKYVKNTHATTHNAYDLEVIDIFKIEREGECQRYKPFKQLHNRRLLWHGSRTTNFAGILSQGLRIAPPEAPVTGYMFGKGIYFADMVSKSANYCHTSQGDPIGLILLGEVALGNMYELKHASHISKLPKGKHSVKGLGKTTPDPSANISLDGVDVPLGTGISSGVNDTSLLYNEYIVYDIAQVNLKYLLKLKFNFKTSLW

SMILES	IC50 [µM]
NC(=O)c1cccc2c1OCC2	9.45
NC(=O)c1cc(Br)cc2c1OCC2	> 25
NC(=O)c1cc([N+](=O)[O-])cc2c1OCC2	> 25
NC(=O)c1cc(N)cc2c1OCC2	> 25
Cc1cc2c(c(C(N)=O)c1)OC(C)C2 (stereo unspecified)	> 25
CC1Cc2cc([N+](=O)[O-])cc(C(N)=O)c2O1 (stereo unspecified)	> 25
CC1Cc2cc(N)cc(C(N)=O)c2O1 (stereo unspecified)	> 25
NC(=O)c1cccc2c1O/C(=C\c1ccccc1O)C2=O	> 10
NC(=O)c1cccc2c1O/C(=C\c1ccc(O)c(O)c1)C2=O	0.531
NC(=O)c1cccc2c1O/C(=C\c1cc(O)cc(O)c1)C2=O	> 10
NC(=O)c1cccc2c1O/C(=C\c1cc(O)ccc1O)C2=O	> 10
NC(=O)c1cccc2c1O/C(=C\c1cccc(OCCN3CCOCC3)c1)C2=O	> 10
NC(=O)c1cccc2c1O/C(=C\c1cccc(OCCN3CCCCC3)c1)C2=O	> 10
NC(=O)c1cccc2c1O/C(=C\c1ccc(OCCN3CCCCC3)cc1)C2=O	0.544
NC(=O)c1cccc2c1O/C(=C\c1ccc(OCCCN3CCOCC3)cc1)C2=O	0.718
CN1CCN(CCCS(=O)(=O)Nc2ccc(/C=C3\Oc4c(C(N)=O)cccc4C3=O)cc2)CC1	0.113
CC1Cc2c(N)ccc(C(N)=O)c2O1 (single isomer, unassigned; enantiomer 1)	2.43

Other lines, results leading:

IC50 [µM]	SMILES
6.34	C[C@@H]1Cc2cccc(C(N)=O)c2O1
8.44	C[C@H]1Cc2cccc(C(N)=O)c2O1
1.53	C[C@@H]1Cc2cc(F)cc(C(N)=O)c2O1
3.62	C[C@H]1Cc2cc(F)cc(C(N)=O)c2O1
2.12	NC(=O)c1cc(F)cc2c1OCC2
6.8	NC(=O)c1nn(CCCN2C(=O)C(=O)c3ccccc32)c2ccccc12
16.2	NC(=O)c1cccc2c1OCC2=O
4.65	NC(=O)c1cccc2c1O/C(=C\c1cccc(Oc3ccccc3)c1)C2=O
6.09	NC(=O)c1cccc2c1O/C(=C\c1ccc(Cl)cc1)C2=O
3.62	COc1cc(/C=C2\Oc3c(C(N)=O)cccc3C2=O)ccc1O
3.3	COc1ccc(/C=C2\Oc3c(C(N)=O)cccc3C2=O)cc1
2.14	NC(=O)c1cccc2c1O/C(=C\c1cccc(O)c1)C2=O
0.813	NC(=O)c1cccc2c1O/C(=C\c1ccc(O)cc1)C2=O
0.753	NC(=O)c1cccc2c1O/C(=C\c1ccc(O)cc1O)C2=O
2.07	NC(=O)c1cccc2c1O/C(=C\c1ccc(OCCN3CCOCC3)cc1)C2=O
0.114	CN1CCN(CCOc2ccc(/C=C3\Oc4c(C(N)=O)cccc4C3=O)cc2)CC1
0.223	NC(=O)c1cccc2c1O/C(=C\c1ccc(OCC(=O)N3CCOCC3)cc1)C2=O
1.21	NC(=O)c1cccc2c1O/C(=C\c1ccc(OCC3CO3)cc1)C2=O (stereo unspecified)
0.176	NC(=O)c1cccc2c1O/C(=C\c1ccc(OCC(O)CN3CCOCC3)cc1)C2=O (stereo unspecified)
0.445	NC(=O)c1cccc2c1O/C(=C\c1ccc(OCCN3CCN(c4ccc(F)cc4)CC3)cc1)C2=O
0.079	CN1CCN(CCS(=O)(=O)Nc2ccc(/C=C3\Oc4c(C(N)=O)cccc4C3=O)cc2)CC1
10.4	CC1Cc2cccc(C(N)=O)c2O1 (racemic)
2.45	CC1Cc2cc(F)cc(C(N)=O)c2O1 (racemic)
5.33	CC1Cc2c(N)ccc(C(N)=O)c2O1 (single isomer, unassigned)

Test system: not listed separately
Assay: Cytotoxicity against chicken wild-type DT40 cells assessed as cell viability at 10 uM after 72 hrs by ATPlite assay
Format: cell-based, Gallus gallus
Conditions: dt40, 72 h

SMILES	Activity
CN1CCN(CCOc2ccc(/C=C3\Oc4c(C(N)=O)cccc4C3=O)cc2)CC1	Toxic
C[C@]1(c2nc3c(C(N)=O)cccc3[nH]2)CCCN1 [VELIPARIB]	Non-toxic

Test system: not listed separately
Assay: Cytotoxicity against chicken BRCA2-deficient DT40 cells assessed as cell viability after 72 hrs by ATPlite assay
Format: cell-based, Gallus gallus
Conditions: not given

SMILES	IC90 at 72 h [µM]
CN1CCN(CCOc2ccc(/C=C3\Oc4c(C(N)=O)cccc4C3=O)cc2)CC1	5.2

Test system: not listed separately
Assay: Cytotoxicity against chicken PARP1-deficient DT40 cells assessed as cell viability at 10 uM after 72 hrs by ATPlite assay
Format: cell-based, Gallus gallus
Conditions: dt40, 72 h

SMILES	Activity
CN1CCN(CCOc2ccc(/C=C3\Oc4c(C(N)=O)cccc4C3=O)cc2)CC1	Toxic
C[C@]1(c2nc3c(C(N)=O)cccc3[nH]2)CCCN1 [VELIPARIB]	Non-toxic
